Entries after “also recorded” stand apart in the source; their conditions may differ. Marks after values point to notes of the source that are not given here.
Assays:
[1] = test system: influenza A/WSN/33 (H1N1)-infected mice; assay: Effect of influenza infection and i.p. liponucleotide treatment on lung function; format: in vivo, mouse; conditions: for HR (bpm) / SaO2 (%) / WET:DRY / CST / RBASAL: day 6
Excerpt: SaO2 increased from approximately 85% to approximately 96%. This is equivalent to an increase in PaO2 from approximately 65 mmHg to approximately 85 mmHg. It is also equivalent to an increase in O2 carrying capacity of blood (CaO2) from approximately 88% to approximately 97% of normal. Patients with an SaO2 of 96% or a […] would not require additional treatment

influenza-infected mice = assay: Effect of influenza infection and CDP-CHO treatment on lung inflammation; format: in vivo; conditions: day 6; 100 μg/mouse i.p., daily from 1-5 days post-infection
[2] = test system: mouse model of asthma (dust mite/ragweed/Aspergillus fumigatus [DRA] triple antigen exposure); assay: BALF total and differential cell counts in DRA mouse model of asthma; format: in vivo, BALB/c mice
Protocol: (§1) To experimentally determine the efficacy of the liponucleotides (lipoNTs) CDP-choline (CDP-CHO), CDP-ethanolamine (CDP-ETH), and CDP-diacylglycerol 16:0/16:0 (CDP-DAG) as therapeutics in a mouse model of asthma (dust mite/ragweed/Aspergillus fumigatus [DRA] triple antigen exposure) (Chung S, et al. Oncotarget 2016 7:17532-17546).
(§2) To induce asthma, adult female BALB/c mice (n=4-5 per group) were sensitized with 50 μl alum+50 μl sterile saline containing dust mite allergen (5 μg/mouse)+ragweed allergen (5 μg/mouse)+Aspergillus allergen (5 μg/mouse) by i.p. injection on days 0 and 5. Mice were then challenged intranasally with dust mite allergen (8.3 μg/mouse)+ragweed allergen ([…])+Aspergillus allergen (8.3 μg/mouse) in 30 μl saline on days 12, 13, and 14, under isoflurane anesthesia. LipoNTs were administered daily by the intraperitoneal route in 50 μl sterile saline.
(§3) Data were collected 15 days after first exposure to DRA in terminal experiments.
Following flexiVent analysis, bronchoalveolar lavage was performed on all mice using 0.8 ml PBS. BALF total and differential cell counts (trypan-blue stained live cells and Giemsa-stained cytospins, respectively) were performed on cell pellets to assess inflammatory cell infiltrates. BALF eosinophil (EO), alveolar macrophage (AM), and neutrophil (PMN) counts were determined.

[3] = test system: mouse model of asthma (dust mite/ragweed/Aspergillus fumigatus [DRA] triple antigen exposure); assay: BALF cytokine and chemokine content by ELISA in DRA mouse model of asthma; format: in vivo, BALB/c mice; conditions: treatment days 1-14 i.p. daily, mean ± SEM
Protocol: as §1, §2, §3
BAL supernatant fluid was stored at −20° C. for subsequent measurement of cytokine and/or chemokine content by ELISA using commercially available kits in accordance with manufacturers' instructions.

[4] = test system: mouse model of asthma (dust mite/ragweed/Aspergillus fumigatus [DRA] triple antigen exposure); assay: Airway hyperresponsiveness to methacholine (flexiVent) in DRA mouse model of asthma; format: in vivo, BALB/c mice
Protocol: as §1, §2, §3
Airway hyperresponsiveness (AHR) was measured by the forced-oscillation method using the SciReq flexiVent computer-controlled mechanical ventilator. […] Airway resistance at each methacholine dose was quantified by the single-compartment model. […]

[5] = test system: ATII cells from influenza A/WSN/33 (H1N1)-infected mice; assay: Effect of influenza infection and CDP-CHO treatment on ATII cell ultrastructure; format: in vivo, mouse
Excerpt: FIG. 14 is a group of three transmission electron micrographs showing effects of CDP-CHO treatment on ultrastructure of ATII cell lamellar bodies (composed of surfactant lipids and proteins). Relative to mock-infected controls, lamellar bodies in ATII cells from influenza A/WSN/33 (H1N1)-infected mice are smaller and have disordered lamellae.
FIG. 15 is a group of 3 transmission electron micrographs showing effects of influenza infection on ultrastructure of ATII cell mitochondria (Mi). Relative to mock-infected controls (left), Mi in ATII cells from A/WSN/33 (H1N1)-infected mice (center) are fewer in number, less electron dense, and have disordered membranes and cristae.

[6] = test system: mitochondria, influenza-infected mice; assay: Effect of influenza infection and CDP-CHO treatment on mitochondrial function; format: in vivo; conditions: day 6; 100 μg/mouse i.p., daily from 1-5 days post-infection
[7] = i.p. daily from 1-5 days post-infection, CDP-CHO and CDP-ETH 100 μg/mouse, CDP-DAG 10 μg/mouse
[8] = treatment days 1-14, result in words
[9] = treatment days 1-14 i.p. daily, day 15, mean ± SEM
[10] = 100 μg/mouse i.p. on day 5 only
[11] = i.p. daily from 1-5 days post-infection, CDP-CHO 100 μg/mouse, CDP-DAG 10 μg/mouse
[12] = ATII cells of infected mice, result in words
[13] = day 6, 100 μg/mouse i.p., daily from 1-5 days post-infection

Compound: NCCO[P@SP3](=O)(O)O[P@SP3](=O)(O)OC[C@H]1O[C@@H](n2ccc(N)nc2=O)[C@H](O)[C@@H]1O [CDP-ETH, CDP-ethanolamine]
- HR (bpm) [1, 7]: 540 ± 20 bpm
- SaO2 (%) [1, 7]: 91.1 ± 1.5%
- WET:DRY [1, 7]: 6.5 ± 0.4

Compound: CDP-diacylglycerol [CDP-DAG]
- HR (bpm) [1, 7]: 600 ± 10 bpm
- SaO2 (%) [1, 7]: 95.2 ± 1.6 %
- WET:DRY [1, 7]: 5.8 ± 0.1

Compound: C[N+](C)(C)CCO[P@TB16](=O)(O)O[P@TB16](=O)(O)OC[C@H]1O[C@@H](n2ccc(N)nc2=O)[C@H](O)[C@@H]1O [CDP-CHO, CDP-choline]
- BALF ALVEOLAR MACS (×10^6/ml) (influenza-infected mice): 1.08 ± 0.21 ×10^6/ml
- BALF NEUTROPHILS (×10^6/ml) (influenza-infected mice): 0.45 ± 0.07 ×10^6/ml
- BALF PC (influenza-infected mice): 1.61 ± 0.45
- VIRAL TITER (log PFU/g) (influenza-infected mice): 5.32 ± 0.07 log PFU/g
- anti-inflammatory effect (BALF leukocyte counts) [2, 8]: decreases BALF EO and AM counts
- BALF AMs (×10^6) [2, 9]: 0.14 ± 0.03 ×10^6
- BALF EOs (×10^6) [2, 9]: 0.26 ± 0.03 ×10^6
- BALF PMNs (×10^6) [2, 9]: 0.1 ± 0.03 ×10^6
- CCL-11 (pg/ml), also known as eotaxin-1 [3]: 18 ± 8 pg/mL
- IL-5 [3]: 16 ± 5 pg/mL
- IL-17 [3]: 5 ± 1 pg/mL
- CST [1, 10]: 0.05 ± 0.006
- HR (bpm) [1, 10]: 550 ± 10 bpm
- RBASAL [1, 10]: 1.63 ± 0.22
- SaO2 (%) [1, 10]: 92.9 ± 1.5 %
- WET:DRY [1, 10]: 6.2 ± 0.2
- CST [1, 11]: 0.05 ± 0.002
- RBASAL [1, 11]: 1.96 ± 0.12
- HR (bpm) [1, 7]: 570 ± 10 bpm
- SaO2 (%) [1, 7]: 93.5 ± 1.0 %
- WET:DRY [1, 7]: 6.2 ± 0.4
- PaO2 ([1]; equivalent of the SaO2 increase, from approximately 65 mmHg): approximately 85 mmHg
- O2 carrying capacity of blood (CaO2) ([1]; equivalent of the SaO2 increase, from approximately 88%): approximately 97 % of normal
- SaO2 ([1]; infected mice, CDP-CHO treatment, increased from approximately 85%): approximately 96%
- Effects of single dose treatment late in infection compared with daily treatment ([1]; infected mice, result in words): as good as those of daily treatment
- cardiac function ([1]; infected mice, result in words): improved cardiac function
- lung function ([1]; infected mice, result in words): better lung function
- oxygenation ([1]; infected mice, result in words): improved oxygenation
- pulmonary edema ([1]; infected mice, result in words): reduced pulmonary edema
- DRA-induced AHR [4, 8]: does not attenuate
- RMAX (cmH2O · s/ml) ([4]; treatment days 1-14 i.p. daily, CDP-CHO, CDP-ETH 5 mg/kg, CDP-DAG 0.5 mg/kg, peak airway resistance at 50 mg/ml methacholine, day 15, mean ± SEM): 2.65 ± 0.06 cmH2O · s/ml
- ATII cell mitochondria (Mi) morphology (transmission electron micrographs) [5, 12]: more electron-dense and have more normal cristae; also recorded: display normal morphology
- lamellar body morphology (transmission electron micrographs) [5, 12]: improves lamellar body morphology
- ATII CELL AREA (μm^2) [5, 13]: 53.64 ± 5.63* μm^2
- LAMELLAR BODIES/CELL [5, 13]: 8.1 ± 1.16
- LAMELLAR BODY AREA (μm^2) [5, 13]: 0.41 ± 0.04* μm^2
- MITOCHONDRIAL/CELL [5, 13]: 14.5 ± 1.78
- MIT[…] (μm^2) [5, 13]: 0.34 ± 0.01* μm^2
- MITOCHONDRIAL MEMBRANE POTENTIAL (ψm; DilC1(5) MCF) [6]: 10.14 ± 2.3
- MIT[…] PRODUCTION [6]: 36.91 ± 6.82

— patent publication US11850283B2, “Liponucleotide-based therapy for asthma” (priority 2017, dated 2023)
